Source: BindingDB's records for doi:10.1021/bi400945y (Johns Hopkins Bloomberg School of Public Health, 2013)
pIC50: −log10 of the molar value.

The compounds below were run against T1, Enoyl-acyl carrier reductase ENR (Toxoplasma gondii, UniProt Q6UCJ9) (assay: TgENR Inhibition Assay). Details: pH 7.5.
T1 sequence (Q6UCJ9 whole entry): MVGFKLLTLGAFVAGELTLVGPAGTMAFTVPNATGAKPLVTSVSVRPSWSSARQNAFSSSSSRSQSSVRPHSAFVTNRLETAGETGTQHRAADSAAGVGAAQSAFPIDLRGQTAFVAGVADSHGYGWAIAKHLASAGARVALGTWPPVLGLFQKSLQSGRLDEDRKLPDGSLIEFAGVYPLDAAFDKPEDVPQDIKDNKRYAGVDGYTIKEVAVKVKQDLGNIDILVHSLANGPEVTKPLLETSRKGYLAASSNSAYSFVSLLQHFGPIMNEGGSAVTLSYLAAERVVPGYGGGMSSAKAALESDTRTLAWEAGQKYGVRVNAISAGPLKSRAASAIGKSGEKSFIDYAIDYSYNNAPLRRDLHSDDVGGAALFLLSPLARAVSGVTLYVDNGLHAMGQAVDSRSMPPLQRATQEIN
For `Oc1cc(Cl)ccc1Oc1ccc(NCc2ccccc2)cc1Cl`, the pIC50 was 7.89.
For `Oc1ccc(Oc2ccc(Cl)cc2O)c(Cl)c1`, the pIC50 was 8.52.
`N#Cc1ccccc1CNc1ccc(Oc2ccc(Cl)cc2O)c(Cl)c1` showed a pIC50 of 7.80.
Work on `CCc1ccc(Oc2ccc(Cl)cc2Cl)c(O)c1` [2‐(2,4‐dichlorophenoxy)‐5‐ethylphenol (11)] yielded a pIC50 of 8.10.
`CCCCc1cn(Cc2ccc(Oc3ccc(Cl)cc3O)c(Cl)c2)nn1` [2‐{4‐[(4‐butyl‐1,2,3‐triazol‐1‐yl)methyl]‐2‐ chlorophenoxy}‐5‐chlorophenol (25)] was tested, and the pIC50 was 7.37.
Work on `N#Cc1ccc(Oc2ccc(Cl)cc2Cl)c(O)c1` [4‐(2,4‐dichlorophenoxy)‐3‐hydroxybenzonitrile (19)] yielded a pIC50 of 7.62.
With `Oc1cc(Cl)ccc1Oc1ccc(Cn2ccnn2)cc1Cl` [5‐chloro‐2‐[2‐chloro‐4‐(1,2,3‐triazol‐1‐ ylmethyl)phenoxy]phenol (24)] the pIC50 was 7.59.
In the case of `Oc1cc(Cl)ccc1Oc1ccc(CNc2ccccc2)cc1Cl` [5‐chloro‐2‐{2‐chloro‐4‐ [(phenylamino)methyl]phenoxy}phenol (26)], the pIC50 was 7.51.
For `Cc1cc(CC(=O)NCc2ccc(Oc3ccc(Cl)cc3O)c(Cl)c2)on1` [N‐{[3‐chloro‐4‐(4‐chloro‐2‐ hydroxyphenoxy)phenyl]methyl}‐2‐(3‐methyl‐1,2‐ oxazol‐5‐yl)acetamide (28)], the pIC50 was 7.48.
For `Cc1cc(C(=O)NCc2ccc(Oc3ccc(Cl)cc3O)c(Cl)c2)no1` [N‐{[3‐chloro‐4‐(4‐chloro‐2‐ hydroxyphenoxy)phenyl]methyl}‐5‐methyl‐1,2‐oxazole‐3‐ carboxamide (29)], the pIC50 was 7.00.
